From paper PMC8639500, “SSTP1, a Host Defense Peptide, Exploits the Immunomodulatory IL6 Pathway to Induce Apoptosis in Cancer Cells” (Frontiers in Immunology, 2021)
One block for each compound: values may come before it. Residues, ends and D or L forms follow the SMILES beside them.

Tests used:
Type in all cases: cell-based, human
[1] = tested on: HSC-4 cells; assay: MTT growth inhibition by SSTP1 with or without IL6 pathway inhibitors; conditions: 4h SSTP1 (10 μM), pre-treatment LMT-28 60 μM 1.5 h, Anti-IL6Rα 10µg/ml 2h, SC144 40 μM 2h
Method: (§1) Concentration- and time-dependent effects on cell growth inhibition were measured using the MTT [3-(4,5-dimethylthiazol-2-yl)−2,5-diphenyltetrazolium bromide] assay. 5000 cells/well were seeded in 96-well plate and were treated with peptides for 48h. Cells were incubated with MTT (1.25 mg/ml) for 2 hours at 37°C. The blue formazan crystals were solubilized in isopropanol and read at 595 nm.
Figure 8 SSTP1-induced pcJUN activation depends on JNK and on gp130 and IL6Rα. (A) HSC-4 cells treated with SSTP1 (30 minute) and the indicated inhibitors were used for western blot analysis of the indicated molecules (B) Densitometric analysis was done for the bands of (a) and relative phosphorylation based on untreated is plotted. (C) The cells treated with SSTP1 (30 minutes) and IL6Rα antibody or SC144 were used for western blot analysis of the indicated molecules. (D) Densitometric analysis was done for the bands of (C) and relative phosphorylation based on untreated is plotted. (E) Growth inhibition analyzed by MTT assay after 4h treatment with SSTP1(10 μM) with or without the inhibitors. LMT-28 (60 μM). For all the experiments SSTP1 (10 μM) was used with or without LMT-28 (60 μM), Ruxolitinib (30 μM) or SP600125 (20 μM), Anti-IL6Rα (10µg/ml) or SC144 (40 μM). […]

[2] = tested on: HSC-4 cells; assay: MTT growth inhibition assay, HSC-4 cells; conditions: 48 h
Method: as §1
IC50 value for HSC-4 cells and MDA-MB-231cells were calculated with Dose-response model. Analysis of dose-response data is made available through the ‘drc’ package in R environment for statistical computing. […] The statistical significance between two groups was analyzed using Students paired two-tailed t-test.
Figure 1 SSTP1 induces apoptosis in oral cancer cells (A) HSC-4 cells were treated with peptides SSTP1 and SSTP2 at different concentrations in 0.5% DMEM for 48 h, and MTT assay was performed to calculate % growth inhibition. […] (C)The quantified populations are represented in the graph. […] (D) The HSC-4 cells treated with 10 μM SSTP1 or SSTP2 for indicated time intervals were used for western blot analyses (E) Densitometric analysis was done for the bands, and fold change based on 0min was calculated. […]

[3] = tested on: MDA-MB-231 cells; conditions: 48 h
Method: as §1
IC50 value for HSC-4 cells and MDA-MB-231cells were calculated with Dose-response model. Analysis of dose-response data is made available through the ‘drc’ package in R environment for statistical computing. The “drm” function in the package “drc” is a general model fitting function for analysis of concentration/dose/time-effect/response data and the four parameter a log-logistic model was fitted for estimating the slope, lower, upper and IC50 values. […] The statistical significance between two groups was analyzed using Students paired two-tailed t-test.
Figure 10 Sensitivity of cancer cells to SSTP1 depends on the level of IL6Rα. […] (C) Growth inhibition analyzed by MTT assay using 10 μM SSTP1 treated for 48h. (D) Growth inhibitory curve of SSTP1 for MDA-MB-231 cells and HEK-293 cells analyzed after 48h treatment with SSTP1 and Hemolysis induced by SSTP1 on human RBC. […] (F) The blots were quantified using ImageJ, and the graphs were plotted. *p < .05, **p < .01, ***p < .001.

Compound: O=C(NNc1nc2cc(F)ccc2n2cccc12)c1cnccn1 [SC144]
effect on SSTP1-induced growth inhibition [1]: significantly inhibited

IC50 [3]: 4.5 µM
Compound: CC[C@H](C)[C@H](NC(=O)[C@H](CC(C)C)NC(=O)[C@H](CC(C)C)NC(=O)[C@@H]1CCCN1C(=O)[C@H](CC(C)C)NC(=O)[C@@H](N)Cc1ccccc1)C(=O)N[C@@H](CO)C(=O)N[C@@H](C)C(=O)N[C@@H](CC(C)C)C(=O)N[C@H](C(=O)N[C@@H](CO)C(=O)N[C@@H](CC(C)C)C(=O)N[C@@H](Cc1ccccc1)C(=O)N1CCC[C@H]1C(=O)N[C@@H](CCCCN)C(=O)N[C@@H](CC(C)C)C(=O)NCC(=O)N[C@@H](CCCCN)C(=O)O)[C@@H](C)O [SSTP1] (H-FLPLLISALTSLFPKLGK-OH)
IC50 [2]: 10.2 µM

Compound: CC[C@H](C)[C@H](NC(=O)[C@H](CCCNC(=N)N)NC(=O)[C@H](CCCNC(=N)N)NC(=O)[C@@H]1CCCN1C(=O)[C@H](CC(C)C)NC(=O)[C@@H](N)Cc1ccccc1)C(=O)N[C@@H](CO)C(=O)N[C@@H](C)C(=O)N[C@@H](CCCNC(=N)N)C(=O)N[C@H](C(=O)N[C@@H](CO)C(=O)N[C@@H](CC(C)C)C(=O)N[C@@H](Cc1ccccc1)C(=O)N1CCC[C@H]1C(=O)N[C@@H](CCCCN)C(=O)N[C@@H](CCCNC(=N)N)C(=O)NCC(=O)N[C@@H](CCCCN)C(N)=O)[C@@H](C)O [SSTP2] (H-FLPRRISARTSLFPKRGK-NH2)
cytotoxicity (growth inhibition) in words ([2]; HSC-4 cells, MTT): negligible cytotoxicity
